The text below walks through data of ChEMBL document CHEMBL5608181, “Discovery of indazole inhibitors for heat shock protein 90 as anti-cancer agents” (Eur J Med Chem, 2024).

For data set [1], the system named is BT-474. In words: Antiproliferative activity against human BT-474 cells assessed as inhibition of cell viability at 10 uM measured after 72 hrs by CellTiter 96 Aqueous One Solution Cell Proliferation Assay relative to control. Type of data set: functional.
The species named for a further data set is Homo sapiens. Nature of the data set: Inhibition of N-terminal HSP90 (unknown origin) at 10 uM by AlphaLISA assay. Background: Bead proximity is the source of the signal in Alpha formats.
The next data set relates to JIMT-1. In words: Antiproliferative activity against human JIMT-1 cells assessed as inhibition of cell viability at 10 uM measured after 72 hrs by CellTiter 96 Aqueous One Solution Cell Proliferation Assay. The data set is classed as functional, cell-based.
In data set [2] the test system is BT-474. In words: Antiproliferative activity against human BT-474 cells assessed as inhibition of cell viability at 10 uM measured after 72 hrs by CellTiter 96 Aqueous One Solution Cell Proliferation Assay. The data set is classed as functional, cell-based.
In the next data set the test system is HEK293. Nature of the data set: Cytotoxicity against HEK293 cells assessed as reduction in cell viability at 10 uM measured after 72 hrs by CellTiter 96 Aqueous One Solution Cell Proliferation Assay. Type of data set: toxicity, cell-based. Conditions: human, hek293, 72 h.

A word on the inhibition: it is the drop in the measured response relative to a control, in per cent.

The source made the active and inactive calls. The rule behind the calls is not given here. A value given as a limit tells only on which side of the number the result lay.

For the compound `COCCCn1nc(NC(=O)c2ccc3c(c2OC)C=CC(C)(C)O3)c2ccccc21`, the inhibition at 10 µM in the data set with BT-474 [1] was > 50%. Still for that read-out and setting: with `COc1c(C(=O)Nc2nn(CCC3CCN(C)CC3)c3ccccc23)ccc2c1C=CC(C)(C)O2` the figure was > 50%. Turning to `CO[C@@H]1[C@@H](OC(N)=O)[C@@H](O)[C@H](Oc2ccc3c(O)c(NC(=O)c4ccc(O)c(CC=C(C)C)c4)c(=O)oc3c2C)OC1(C)C`, the inhibition result in the data set filed under Homo sapiens is “inactive”. Still for that read-out and setting: the value for `CC(C)c1cc(-c2n[nH]c(=O)n2-c2ccc3c(ccn3C)c2)c(O)cc1O` was “Active”. Take `COCCn1cc(NC(=O)c2ccc3c(c2OC)C=CC(C)(C)O3)c2cccnc21`: the result in the data set on JIMT-1 and in the data set on BT-474 [2] was Active. For the same compound, in the data set with HEK293, the Activity result is listed as “Toxic”. As for `COc1c(C(=O)Nc2ccc3c(C)nn(CCN4CCOCC4)c3c2)ccc2c1C=CC(C)(C)O2`, in the data set on BT-474 [1], the inhibition at 10 µM was > 50%.
